Measured values: paper PMC7245553 (Cell chemical biology, 2020)
≈ marks a conversion by molar mass, not a printed value.

Legend:
M. tuberculosis H37Rv [1] = details: cited from earlier work
[2] = pH 7.4; cited from earlier work
[3] = Mouse pharmacokinetic profiling; type: in vivo, CD-1 mice; details: mouse, in vivo, po
M. tuberculosis H37Rv [4] = experiment: Mouse model of acute M. tuberculosis infection; type: in vivo, BALB/c mice; details: 100 mg/kg po qd
Vero cells = details: cited from earlier work
M. tuberculosis = M. tuberculosis killing kinetics; type: cell-based, Mycobacterium tuberculosis; details: 103 MIC of compound, over 7 days, followed by re-growth
[5] = mouse, microsomes; cited from earlier work
M. tuberculosis H37Rv [6] = details: acute model, 100 mg/kg qd po, alone; ref Kumar et al., 2018; cited from earlier work

CCCCS(=O)(=O)Nc1ccc2cnn(C)c2c1 [DG167]
MIC H37Rv (M. tuberculosis H37Rv [1]; footnote a, ref Kumar et al. (2018)): 0.39 µM (≈ 0.104 µg/mL) | MIC against the wild-type H37Rv strain (M. tuberculosis H37Rv [1]; ref Kumar et al., 2018): 390 µM (≈ 104 µg/mL) | Kinetic Aqueous Solubility [2]: 324 µM | AUC0–5h/MIC [3]: 20 | increase of CFU in the lungs versus start of treatment (M. tuberculosis H37Rv [4]): about 1 log10 CFU | CC50 (Vero cells): 23 µM | reduction in CFUs, killing kinetics (M. tuberculosis): > 2 log10 | MLM t1/2 [5]: 10.1 min | bacterial load of mouse lungs versus start of treatment (M. tuberculosis H37Rv [6]): did not reduce the bacterial load of mouse lungs
